From USRE38132E1, “Phenylpyrrolidines, phenylimidazolidines,3-phenyl-1,3-oxizolidines and 3-phenyl-1,3-thiazolidines and their use in the treatment of inflammatory disease” (Boehringer Ingelheim Pharmaceuticals, Inc., priority 1997, dated 2003)

What follows are compounds tested against T1, interaction of ICAM-1 with the Leukointegrin CD18/CD11a (LFA-1) (Homo sapiens, UniProt P05107+P20701) (assay: Assay to determine inhibition of LFA-1 binding to ICAM-1 (immunopurified LFA-1 on plate-bound sICAM-1, ELISA readout)). Details: not given.
T1 construct: endogenous in cells; sICAM-1: made in house, secreted from transfected CHO DUX cells
T1 sequence (P20701 26-1170): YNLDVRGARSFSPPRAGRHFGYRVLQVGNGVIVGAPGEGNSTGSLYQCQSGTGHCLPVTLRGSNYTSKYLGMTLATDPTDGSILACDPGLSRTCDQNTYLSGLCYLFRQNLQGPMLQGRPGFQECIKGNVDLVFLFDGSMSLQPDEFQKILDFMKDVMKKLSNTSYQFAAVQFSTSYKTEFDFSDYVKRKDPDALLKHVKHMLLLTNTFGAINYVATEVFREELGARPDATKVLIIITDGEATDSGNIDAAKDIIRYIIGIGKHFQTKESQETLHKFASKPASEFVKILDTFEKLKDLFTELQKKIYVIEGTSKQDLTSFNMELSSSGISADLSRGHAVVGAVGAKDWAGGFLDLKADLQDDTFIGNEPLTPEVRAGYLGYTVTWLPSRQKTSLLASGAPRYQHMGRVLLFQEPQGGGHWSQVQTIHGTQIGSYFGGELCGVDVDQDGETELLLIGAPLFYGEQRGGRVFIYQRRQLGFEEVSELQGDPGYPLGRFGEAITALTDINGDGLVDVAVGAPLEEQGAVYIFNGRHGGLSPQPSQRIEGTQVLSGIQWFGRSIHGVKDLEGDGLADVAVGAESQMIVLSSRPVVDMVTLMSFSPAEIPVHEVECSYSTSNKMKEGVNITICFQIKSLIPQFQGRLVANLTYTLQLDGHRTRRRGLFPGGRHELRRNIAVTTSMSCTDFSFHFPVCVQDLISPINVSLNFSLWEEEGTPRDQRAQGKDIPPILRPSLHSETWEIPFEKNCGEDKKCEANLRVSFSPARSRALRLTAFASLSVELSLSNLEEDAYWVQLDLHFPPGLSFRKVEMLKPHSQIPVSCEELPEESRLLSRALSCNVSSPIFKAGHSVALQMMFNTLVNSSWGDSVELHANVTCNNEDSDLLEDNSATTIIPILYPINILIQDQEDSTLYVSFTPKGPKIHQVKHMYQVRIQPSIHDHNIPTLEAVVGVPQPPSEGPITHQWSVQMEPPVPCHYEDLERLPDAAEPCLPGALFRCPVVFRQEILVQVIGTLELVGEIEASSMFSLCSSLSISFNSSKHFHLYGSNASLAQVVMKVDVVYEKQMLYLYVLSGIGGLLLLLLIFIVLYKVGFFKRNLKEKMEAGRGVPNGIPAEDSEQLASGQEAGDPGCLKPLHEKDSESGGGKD
T1 sequence (P05107 23-769): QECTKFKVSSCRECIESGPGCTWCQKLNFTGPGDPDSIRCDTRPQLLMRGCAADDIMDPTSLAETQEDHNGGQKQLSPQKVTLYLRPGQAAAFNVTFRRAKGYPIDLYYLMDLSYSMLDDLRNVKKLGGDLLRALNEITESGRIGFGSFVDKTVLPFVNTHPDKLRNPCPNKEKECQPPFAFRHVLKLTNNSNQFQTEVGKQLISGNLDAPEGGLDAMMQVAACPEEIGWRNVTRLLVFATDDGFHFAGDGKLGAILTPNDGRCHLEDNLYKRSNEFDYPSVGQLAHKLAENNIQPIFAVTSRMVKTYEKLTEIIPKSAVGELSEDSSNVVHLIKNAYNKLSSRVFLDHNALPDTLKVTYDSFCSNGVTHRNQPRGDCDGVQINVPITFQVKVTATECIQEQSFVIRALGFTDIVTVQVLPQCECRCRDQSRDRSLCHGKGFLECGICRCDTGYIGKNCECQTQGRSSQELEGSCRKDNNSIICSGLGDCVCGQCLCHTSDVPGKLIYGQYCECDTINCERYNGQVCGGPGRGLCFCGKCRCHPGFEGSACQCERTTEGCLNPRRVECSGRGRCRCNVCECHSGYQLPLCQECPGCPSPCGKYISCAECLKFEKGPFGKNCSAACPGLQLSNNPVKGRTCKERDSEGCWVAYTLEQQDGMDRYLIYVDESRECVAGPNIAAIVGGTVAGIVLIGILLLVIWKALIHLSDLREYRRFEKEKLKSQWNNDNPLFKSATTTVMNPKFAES

Row | Compound | Kd
1 | C[C@]1(Cc2ccc(C(=O)c3ccccc3)cc2)NC(=O)N(c2cc(Cl)cc(Cl)c2)C1=O [Example 216] | 500 nM
2 | CN(C)C(=O)c1ccc(CC2(C)C(=O)N(c3cc(Cl)cc(Cl)c3)C(=O)N2C)cc1 (stereo not shown) [Example 258] | 1660 nM
3 | CC1(Cc2ccccc2)C(=O)N(c2cc(Cl)cc(Cl)c2)C(=O)N1CCO (stereo not shown) [Example 218] | 800 nM
4 | C[C@@]1(Cc2ccc(Br)cc2)C(=O)N(c2cc(Cl)cc(Cl)c2)C(=O)N1CCCCCP(=O)(O)O [Example 222] | 60 nM
5 | C[C@@]1(Cc2ccc(Br)cc2)C(=O)N(c2cc(Cl)cc(Cl)c2)C(=O)N1Cc1ccc(O)cc1 [Example 246] | 250 nM
6 | CC1(Cc2ccccc2)C(=O)N(c2cc(Cl)cc(Cl)c2)C(=O)N1CCCCC(=O)O (stereo not shown) [Example 219] | 1030 nM
7 | C[C@@]1(Cc2ccc(Br)cc2)C(=O)N(c2cc(Cl)cc(Cl)c2)C(=O)N1CCCCCP(=O)(O)O [Example 221] | 140 nM
8 | C[C@@]1(Cc2ccc(Br)cc2)C(=O)N(c2cc(Cl)cc(Cl)c2)C(=O)N1C(=O)[C@H](N)CO [Example 232] | 1240 nM
9 | CN1C(=O)N(c2cc(Cl)cc(Cl)c2)C(=O)C1(CN)Cc1ccc(Br)cc1 (stereo not shown) [Example 230] | 2200 nM
10 | C[C@@]1(Cc2ccc(Br)cc2)C(=O)N(c2cc(Cl)cc(Cl)c2)C(=O)N1COC(=O)C(CO)CO [Example 238] | 80 nM
11 | CC1(Cc2ccc(-c3cc4ccccc4o3)cc2)NC(=O)N(c2cc(Cl)cc(Cl)c2)C1=O (stereo not shown) [Example 209] | 940 nM

Same assay, conditions: values marked e approximated from incomplete dose-response curve

Row | Compound | Kd
12 | C[C@@]1(Cc2ccc(Br)cc2)C(=O)N(c2cc(Cl)cc(Cl)c2)C(=O)N1Cc1ccc(C#N)cc1 [Example 115] | 240 nM
13 | C[C@]1(Cc2ccc(Br)cc2)NC(=O)N(c2cccc(Cl)c2)C1=O [Example 36] | 4050 nM
14 | Cc1cc(C)cc(CC2(C)C(=O)N(c3cc(Cl)cc(Cl)c3)C(=O)N2C)c1 (stereo not shown) [Example 162] | 1050 nM
15 | CC1(Cc2ccc(-c3ccsc3)cc2)NC(=O)N(c2cc(Cl)cc(Cl)c2)C1=O (stereo not shown) [Example 196] | 90 nM
16 | O=C1NC(C(c2ccccc2)c2ccccc2)C(=O)N1c1cc(Cl)cc(Cl)c1 (stereo not shown) [Example 13] | 1960 nM
17 | CC1(Cc2ccc(-c3ccc(Cl)cc3)cc2)NC(=O)N(c2cc(Cl)cc(Cl)c2)C1=O (stereo not shown) [Example 205] | 560 nM
18 | CC1(Cc2cc(F)cc(F)c2)NC(=O)N(c2cc(Cl)cc(Cl)c2)C1=O (stereo not shown) [Example 58] | 2850 nM
19 | CC(C)(C)OC(=O)CN1C(=O)N(c2cc(Cl)cc(Cl)c2)C(=O)C1(C)Cc1ccccc1 (stereo not shown) [Example 91] | 430 nM
20 | CC1(Cc2ccc(C(F)(F)F)cc2)NC(=O)N(c2cc(Cl)cc(Cl)c2)C1=O (stereo not shown) [Example 51] | 430 nM
21 | CN1C(=O)N(c2cc(Cl)cc(Cl)c2)C(=O)C1Cc1ccc(C(=O)c2ccccc2)cc1 (stereo not shown) [Example 95] | 260 nM
22 | CC1(Cc2cccc(O)c2)NC(=O)N(c2cc(Cl)cc(Cl)c2)C1=O (stereo not shown) [Example 11] | 6300 nM
23 | CC1(Cc2ccc(-c3cccc(Cl)c3)cc2)NC(=O)N(c2cc(Cl)cc(Cl)c2)C1=O (stereo not shown) [Example 202] | 230 nM
24 | CC1(Cc2ccc(-c3ccccc3Cl)cc2)NC(=O)N(c2cc(Cl)cc(Cl)c2)C1=O (stereo not shown) [Example 191] | 140 nM
25 | C[C@@]1(Cc2ccc(Br)cc2)C(=O)N(c2cc(Cl)cc(Cl)c2)C(=O)N1CCCCCCCl [Example 120] | 480 nM
26 | CC1(Cc2csc3ccccc23)NC(=O)N(c2cc(Cl)cc(Cl)c2)C1=O (stereo not shown) [Example 27] | ~52000 nM
27 | CN1C(=O)N(c2cc(Cl)cc(Cl)c2)C(=O)[C@@]1(C)Cc1ccc(-c2ccc(C(=O)O)cc2)cc1 [Example 186] | 1110 nM
28 | CC1(Cc2ccc(-c3ccccc3F)cc2)NC(=O)N(c2cc(Cl)cc(Cl)c2)C1=O (stereo not shown) [Example 200] | 90 nM
29 | CC1(Cc2ccc(-c3ccc(C(F)(F)F)cc3)cc2)NC(=O)N(c2cc(Cl)cc(Cl)c2)C1=O (stereo not shown) [Example 208] | 650 nM
30 | CC1(Cc2ccccc2)C(=O)N(c2cc(Cl)cc(Cl)c2)C(=O)N1C1CCCCC1 (stereo not shown) [Example 33] | 940 nM
31 | CC1(Cc2ccc(C(C)(C)C)cc2)NC(=O)N(c2cc(Cl)cc(Cl)c2)C1=O (stereo not shown) [Example 52] | 1590 nM
32 | CCOc1ccc(-c2ccc(CC3(C)NC(=O)N(c4cc(Cl)cc(Cl)c4)C3=O)cc2)cc1 (stereo not shown) [Example 207] | 1280 nM
33 | CN(C)CCN1C(=O)N(c2cc(Cl)cc(Cl)c2)C(=O)C1(C)Cc1ccc(Br)cc1 (stereo not shown) [Example 99] | 520 nM
34 | COc1ccccc1-c1ccc(CC2(C)NC(=O)N(c3cc(Cl)cc(Cl)c3)C2=O)cc1 (stereo not shown) [Example 194] | 270 nM
35 | COC(=O)c1ccc(CC2(C)NC(=O)N(c3cc(Cl)cc(Cl)c3)C2=O)cc1 (stereo not shown) [Example 46] | 2260 nM

Row | Compound | Kd
36 | COc1cccc(CN2C(=O)N(c3cc(Cl)cc(Cl)c3)C(=O)[C@@]2(C)Cc2ccc(Br)cc2)n1 [Example 112] | 390 nM
37 | CC1(Cc2ccccc2Br)NC(=O)N(c2cc(Cl)cc(Cl)c2)C1=O (stereo not shown) [Example 48] | 1750 nM
38 | CC1(Cc2ccc(-c3cccc(Br)c3)cc2)NC(=O)N(c2cc(Cl)cc(Cl)c2)C1=O (stereo not shown) [Example 206] | 730 nM
39 | CC1(Cc2cccc(C(F)(F)F)c2)NC(=O)N(c2cc(Cl)cc(Cl)c2)C1=O (stereo not shown) [Example 53] | 1470 nM
40 | CC1(Cc2ccc(-c3cccs3)cc2)NC(=O)N(c2cc(Cl)cc(Cl)c2)C1=O (stereo not shown) [Example 195] | 300 nM
41 | CC1(Cc2cccc(OC(F)(F)F)c2)NC(=O)N(c2cc(Cl)cc(Cl)c2)C1=O (stereo not shown) [Example 68] | 2580 nM
42 | CN1C(=O)N(c2cc(Cl)cc(Cl)c2)C(=O)C1(C)Cc1cccc(F)c1 (stereo not shown) [Example 147] | 340 nM
43 | C[C@]1(Cc2ccc(-c3ccc(C(=O)O)cc3)cc2)NC(=O)N(c2cc(Cl)cc(Cl)c2)C1=O [Example 183] | 940 nM
44 | O=C(c1ccccc1)c1ccc(CC2NC(=O)N(c3cc(Cl)cc(Cl)c3)C2=O)cc1 (stereo not shown) [Example 1] | 1640 nM
45 | CN1C(=O)N(c2cc(Cl)cc(Cl)c2)C(=O)C1(C)Cc1ccccc1 (stereo not shown) [Example 158] | 690 nM
46 | CN1C(=O)N(c2cc(Cl)cc(Cl)c2)C(=O)C1(C)Cc1ccccc1Br (stereo not shown) [Example 145] | 1050 nM
47 | CCCN1C(=O)N(c2cc(Cl)cc(Cl)c2)C(=O)C1(C)Cc1ccc(Br)cc1 (stereo not shown) [Example 106] | 140 nM
48 | Cc1ccc(CC2(C)C(=O)N(c3cc(Cl)cc(Cl)c3)C(=O)N2C)cc1 (stereo not shown) [Example 144] | 350 nM
49 | CC1(Cc2ccccc2)CC(=O)N(c2cc(Cl)cc(Cl)c2)C1=O (stereo not shown) [Example 75] | 290 nM
50 | CN1C(=O)N(c2cc(Cl)cc(Cl)c2)C(=O)C1(C)Cc1ccc2ccccc2n1 (stereo not shown) [Example 161] | 4560 nM
51 | CN1C(=O)N(c2cc(Cl)cc(Cl)c2)C(=O)C1(C)Cc1ccccc1Cl (stereo not shown) [Example 156] | 690 nM
52 | COc1ccc(CN2C(=O)N(c3cc(Cl)cc(Cl)c3)C(=O)[C@@]2(C)Cc2ccc(Br)cc2)cc1 [Example 113] | 1910 nM
53 | C[C@H](O)CN1C(=O)N(c2cc(Cl)cc(Cl)c2)C(=O)[C@@]1(C)Cc1ccc(Br)cc1 [Example 116] | 190 nM
54 | C[C@@H]1C(=O)N(c2cc(Cl)cc(Cl)c2)C(=O)[C@]1(C)Cc1ccc(Br)cc1 [Example 73] | 340 nM
55 | Cc1ccccc1CC1(C)C(=O)N(c2cc(Cl)cc(Cl)c2)C(=O)N1C (stereo not shown) [Example 148] | 500 nM
56 | O=C1NC(Cc2ccsc2)C(=O)N1c1cc(Cl)cc(Cl)c1 (stereo not shown) [Example 26] | 2750 nM
57 | COc1cccc(CC2(C)C(=O)N(c3cc(Cl)cc(Cl)c3)C(=O)N2C)c1 (stereo not shown) [Example 165] | 1070 nM
58 | Cc1ccccc1CC1(C)C(=O)N(c2cc(Cl)cc(Cl)c2)C(=O)N1C (stereo not shown) [Example 142] | 430 nM
